Drawing on PubChem BioAssay (NCI), this text covers TGI and GI50 for 22 compounds.

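Tested at 5 concentrations; 48 h exposure; 96-well plates; endpoints linearly interpolated, else capped at highest concentration. The concentration for 50% growth inhibition is given as GI50. TGI is the concentration that stops growth completely.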

Assay in all cases: inhibition of tumour cell growth, NCI panel, 48 h
The test system of assay [1] is A549 NSCLC.
Assay [2] concerns SN12C renal.
In assay [3] the test system is OVCAR-4 ovarian.
Assay [4] has as its system NCI-H460 lung.
Assay [5] has as its system COLO 205 colon.
Assay [6] has as its system ACHN renal.
The subject of assay [7] is SK-MEL-5 melanoma.
Assay [8] has as its system IGROV1 ovarian.
Assay [9] concerns TK-10 renal.
The test system of assay [10] is EKVX NSCLC.

As for `O=C(Nc1cccc2ccccc12)c1cc2ccccc2oc1=O`, the TGI in assay [1], in [2], in assay [3], in assay [4], in assay [5] and in [6] was > 100 µM in each case. In addition, the TGI in assay [7] and in assay [8] was > 100 µM in each case.
Turning to `CC(=O)c1c(-c2ccc(Cl)cc2)c(C#N)c(=S)n(C2OC(CO)C(O)C(O)C2O)c1C` (stereo unspecified), the TGI in assay [1] was > 100 µM; in assay [2], > 100 µM; in [3], > 100 µM; in assay [4] it was > 100 µM; in assay [9] it was > 100 µM; in assay [5], 95.1 µM. Moreover, the TGI in assay [6], in [7] and in [8] was > 100 µM in each case.
As to `CN(Cc1cnc2nc(N)nc(N)c2n1)c1ccc(C(=O)NC(CCC(=O)O)C(=O)O)c2ccccc12` (stereo unspecified), the TGI in assay [1], in assay [2], in [3], in assay [4], in [9] and in assay [6] was > 1000 µM each time. In addition, the TGI in assay [10], in assay [7] and in assay [8] was > 1000 µM in each case. In addition, the GI50 in [3], in assay [9] and in assay [10] was > 1000 µM each time.
On to `O=[N+]([O-])/C=C/c1cc(Cl)c(/C=C/[N+](=O)[O-])cc1Cl`, for which the TGI turned out to be 36.1 µM in assay [1]; 52.9 µM in assay [4]; 2.9 µM in assay [9]; 4.5 µM in assay [5]; 2.97 µM in assay [6]; 5.02 µM in assay [10]. The TGI in assay [7] is 14.9 µM; in assay [8], 8.62 µM.
Take `Cc1ccc(S(=O)(=O)NC(=O)Nc2ccc(C(=O)O)cc2)cc1`: the TGI in assay [1], in assay [2], in [3], in assay [4], in [9] and in assay [5] was > 100 µM each time. The TGI in [6], in assay [7] and in assay [8] was > 100 µM in each case.
As for `COc1cc2c(cc1OC)C1=C(C=O)c3ccc(OC)c(OC)c3C(O)N1CC2` (stereo unspecified), the TGI in assay [1] is > 100 µM; in [2] it was > 100 µM; in assay [3], > 100 µM; in assay [4], > 100 µM; in [9], 72.8 µM; in assay [5], 64.1 µM. Besides, the TGI is > 100 µM in [6], > 100 µM in [10] and 29.7 µM in [7].
On to `COc1ccc2oc(=O)c(-c3cc4c(c(C)n3)c(=O)oc3ccc(OC)cc34)cc2c1`, for which the TGI in assay [1] was > 100 µM; in [2], > 100 µM; in [4], > 100 µM; in assay [9], > 100 µM; in assay [5] it was > 100 µM; in [6], 86 µM. Also, the TGI in assay [10], in assay [7] and in assay [8] was > 100 µM throughout.
Regarding `CC(C)(NO)/C(=N\O)c1ccccc1`, the TGI in [2], in assay [3], in assay [4], in assay [9], in [5] and in assay [6] was > 10 µM each time. Besides, the TGI in [10] is > 10 µM.
Take `CCCCCCCCCCCCOCC(COP(=O)(O)OCCN=[N+]=[N-])OC(=O)CCCCCCCCCCC` (stereo unspecified): the TGI in assay [1], in assay [2], in assay [3], in assay [4], in assay [9] and in assay [5] was > 100 µM throughout. The TGI in [6] and in assay [7] was > 100 µM throughout.
For the compound `COCOC1CCCC[C@@]1(OCCOCCO[C@@]1(c2ccccc2)CCCC[C@H]1OCOC)c1ccccc1` (stereo partly specified), the TGI in assay [1], in assay [2], in [3], in [4], in assay [9] and in assay [5] was > 100 µM each time. Besides, the TGI in assay [6], in [10] and in [8] was > 100 µM throughout.
As for `COc1ccc(/C(C=O)=C(\Cl)c2ccc(OC)c(OC)c2)cc1`, the TGI in [1], in assay [2], in assay [3], in [4], in [9] and in [6] was > 100 µM each time. The TGI in assay [10], in assay [7] and in [8] was > 100 µM in each case.
For the compound `NCCCNc1nc2ccccc2c2c(=O)c3cc(Cl)ccc3sc12`, the GI50 in [2] was 1.63 µM; in assay [9] it was 2.18 µM; in assay [5], 1.63 µM; in assay [6] it was 1.57 µM; in [7] it was 3.71 µM. For the same compound, the TGI in assay [2] worked out at 3.07 µM; in assay [9], 3.68 µM; in assay [5], 3.1 µM; in [6], 2.92 µM; in [7] it was 16.2 µM.
For `COC(=O)c1c(O)ccc2c1c1c(n2Cc2ccc(OC)cc2)C(=O)c2ccccc2C1`, the TGI was > 100 µM in [1]; 93.3 µM in assay [2]; > 100 µM in assay [3]; > 100 µM in assay [4]; > 100 µM in assay [9]; 34.4 µM in assay [5]. For the same compound, the TGI in assay [7] and in assay [8] was > 100 µM in each case.
As to `COc1cccc(/C=N/[N-]C(N)=O)c1[O-].[Cu+2].[OH3+]`, the TGI in assay [2] is 27.2 µM; in assay [3], 32.3 µM; in assay [4], 36 µM; in assay [5], > 100 µM; in assay [6], 24.8 µM; in assay [10], 34.9 µM. Also, the TGI in assay [8] turned out to be 19.6 µM. Moreover, the GI50 in assay [5] is 9.49 µM; in assay [8], 6.14 µM.
Consider `NC1CCC2(O)c3ccccc3C2C1` (stereo unspecified), for which the TGI in [1], in [2], in [3], in assay [4], in assay [9] and in [5] was > 100 µM in each case. Further, the TGI in assay [6], in [10] and in [7] was > 100 µM each time.
On to `O=C(/C=C/c1ccccc1)c1cc(CN2CCOCC2)c(O)c(CN2CCOCC2)c1`, for which the TGI in assay [1] is 33.2 µM; in assay [2] it was 25.3 µM; in assay [4], 19.4 µM; in assay [9], 55.6 µM; in [5], 23.6 µM; in [6], 8.26 µM. In addition, the TGI in assay [10] is 98.5 µM; in [7] it was 26 µM; in [8], > 100 µM.
Take `CC1=NC(=N)N=C(C)C1N=Nc1ccc2nc(C)[nH]c2c1` (stereo unspecified): the TGI in assay [1], in assay [2], in assay [3], in assay [4], in [9] and in assay [5] was > 100 µM each time. Besides, the TGI in assay [6], in assay [10] and in [8] was > 100 µM throughout.
In the case of `O=C(/C=C\c1ccccc1)Oc1ccc(/C=C2\CCC/C(=C\c3ccc(OC(=O)/C=C\c4ccccc4)cc3)C2=O)cc1`, the TGI in [1], in assay [2], in [3], in [4], in assay [9] and in assay [5] was > 100 µM in each case. Also, the TGI in assay [6], in assay [10] and in assay [7] was > 100 µM each time.
Consider `CCc1c(O)nc(Nc2nc3ccccc3[nH]2)[nH]c1=O`, for which the TGI in assay [1], in [2], in assay [3], in assay [4], in assay [9] and in assay [5] was > 100 µM throughout. The TGI in [6], in assay [7] and in [8] was > 100 µM each time.
`C/C(CCN(C)C)=N/O`: the TGI in assay [1] came to 17.4 µM; in assay [2], 27.3 µM; in [4], 58.5 µM; in assay [9], 20.2 µM; in assay [5], 15.8 µM; in assay [6], 22.3 µM. In addition, the figures for the TGI in [10], in assay [7] and in assay [8] were 28.8 µM, 24.3 µM and 39.2 µM, respectively.
With `CC(C)Oc1cccc(N2C(CCc3c[nH]c4ccc(Br)cc34)=NS(=O)(=O)c3cnccc32)c1`, the TGI is > 100 µM in assay [1]; > 100 µM in assay [2]; > 100 µM in assay [3]; > 100 µM in assay [4]; > 100 µM in assay [9]; 41.9 µM in [5]. The TGI in [6], in assay [10] and in [7] was > 100 µM in each case.
For the compound `C[n+]1c2ccccc2n2c3ccccc3c(NCCCn3ccnc3)c(C#N)c21`, the TGI in [1] was 32.2 µM; in assay [2], 4.09 µM; in assay [3] it was 7.42 µM; in [4] it was 3.63 µM; in assay [9], 59.5 µM; in assay [5], 4.4 µM. Also, the TGI was > 27.7 µM in [6], 24.1 µM in assay [10] and 13.1 µM in [7].
